{"source": "BindingDB's records for doi:10.1021/jm00037a008", "about": "(Institute, 1994)", "key": {"[1]": {"test": "Evaluation for the inhibition of kappa opioid binding to bovine striatal membranes by the affinity ligand 1 nM [3H]U-69593"}, "[2]": {"test": "Evaluation for the inhibition of delta opioid binding to bovine striatal membranes by the affinity ligand 0.2 nM [3H]p-Cl-DPDPE"}}}
{"compound": "CN1CC[C@]23c4c5ccc(O)c4O[C@H]2C(=O)CC[C@@]3(NC(=O)CS)C1C5", "note": "[1N-[10-hydroxy-4-methyl-14-oxo-12-oxa-4-azapentacyclo[9.6.1.01,13.05,17.07,18]octadeca-7,9,11(18)-trien-17-yl]-2-sulfanylacetamide]", "values": [{"measurement": "IC50", "setting": "[1]", "result": 41, "unit": "nM"}, {"measurement": "IC50", "setting": "[2]", "result": 12, "unit": "nM"}]}
